Laboratory results from patent publication US20040171489A1, “Synergistic active compound combinations for controlling harmful plants” (priority 1998, published 2004).

Legend:
[1] = system: winter barley; assay: Example 9 field trials, application 1-3 leaf stage broad-leaved weeds: crop damage; format: in vivo, Hordeum vulgare
Procedure: (§1) The herbicidal efficacy of the active compounds or active compound mixtures was scored visually using the treated plots in comparison to untreated control plots. The damage and development of all above-ground parts of the plants were recorded. Scoring was carried out using a percentage scale (100% effect=all plants killed; 50% effect=50% of the plants and the green parts of the plants killed; 0% effect=no noticeable effect=like control plot. The scores of in each case 4 plots were averaged.
(§2) If the observed activity values already exceed the formal sum of the values for the trials with the individual applications, they also exceed the expected value according to Colby which is calculated using the following formula and which is likewise considered to be an indication of synergism (cf. S. R. Colby; in Weeds 15 (1967) p. 20 to 22):
(§3) Crop plants were grown outdoors on plots under natural outdoor conditions, and seeds or rhizome pieces of typical harmful plants were laid out or the natural weed growth was utilized. Treatment with the compositions according to the invention was carried out after the harmful plants had emerged and the crop plants were, generally, at the 2- to 4-leaf stage; in some cases (as stated), application of individual active compounds or active compound combinations was carried out pre-emergence (cf. Section 1) or post-emergence (cf. Section 2) or as a sequential treatment partly pre-emergence and/or post-emergence. After the application, for example 2, 4, 6 and 8 weeks after the application, the effect of the preparations was scored visually by comparison with untreated controls (cf. scoring in Section 1). In the field trial as well, the compositions according to the invention have synergistic herbicidal activity against a broad spectrum of economically important weed grasses and broad-leaved weeds. […] Moreover, the effects in essential phases of the scoring period were above the expected values according to Colby, also indicating synergism. […]

[2] = system: Alopecurus myosuroides; assay: Example 9 field trials, application 1-3 leaf stage broad-leaved weeds: herbicidal effect; format: in vivo; settings: 120 to 160 days after application
Procedure: as §1, §2
(§4) Crop plants were grown outdoors on plots under natural outdoor conditions, and seeds or rhizome pieces of typical harmful plants were laid out or the natural weed growth was utilized. Treatment with the compositions according to the invention was carried out after the harmful plants had emerged and the crop plants were, generally, at the 2- to 4-leaf stage; in some cases (as stated), application of individual active compounds or active compound combinations was carried out pre-emergence (cf. Section 1) or post-emergence (cf. Section 2) or as a sequential treatment partly pre-emergence and/or post-emergence. After the application, for example 2, 4, 6 and 8 weeks after the application, the effect of the preparations was scored visually by comparison with untreated controls (cf. scoring in Section 1). In the field trial as well, the compositions according to the invention have synergistic herbicidal activity against a broad spectrum of economically important weed grasses and broad-leaved weeds. […] Moreover, the effects in essential phases of the scoring period were above the expected values according to Colby, also indicating synergism. In contrast, the crop plants were, as a consequence of the treatments with the herbicidal compositions, damaged only to a small degree, if at all.

[3] = system: Capsella bursa-pastoris; assay: as above; format: in vivo; settings: 120 to 160 days after application
Procedure: as §1, §2, §4

[4] = system: winter wheat; assay: Example 9 field trials, application 1-3 leaf stage broad-leaved weeds: crop damage; format: in vivo, Triticum aestivum
Procedure: as §1, §2, §3

[5] = system: winter wheat; assay: Example 8 field trial, 4-leaf stage: crop damage; format: in vivo, Triticum aestivum; settings: 28 days after application
Procedure: as §1, §2, §3

[6] = system: Veronica hederofolia; assay: Example 8 field trial, 4-leaf stage: herbicidal effect; format: in vivo; settings: 28 days after application
Procedure: as §1, §2, §3

[7] = system: Papaver rhoeas; assay: Example 1 field trial, 2-4 leaf stage: herbicidal effect; format: in vivo; settings: 1000 g of ai/ha; 28 days after application
Procedure: as §1, §2, §4

[8] = system: winter wheat; assay: Example 10 pre-emergence application, fall: crop damage; format: in vivo, Triticum aestivum; settings: winter wheat (Triticum aestivum), in vivo, 169 days
Source text: (§5) Seeds or rhizome pieces of monocotyledonous and dicotyledonous weed plants are placed in sandy loam soil in pots and covered with soil. The compositions, formulated in the form of concentrated aqueous solutions, wettable powders or emulsion concentrates, are then applied to the surface of the soil cover as aqueous solution, suspension or emulsion at an application rate of 600 to 800 l of water/ha (converted), in various dosages. After the treatment, the pots are placed in a greenhouse and kept under good growth conditions for the weeds. After the test plants have emerged, the damage to the plants or the negative effects on the emergence is scored visually after a test period of 3 to 4 weeks by comparison with untreated controls. As shown by the test results, the compositions according to the invention have good herbicidal pre-emergence activity against a broad spectrum of weed grasses and broad-leaved weeds.
as §1, §2, §4

[9] = system: Galium aparine; assay: Example 10 pre-emergence application, fall: herbicidal effect; format: in vivo; settings: 1000 g of ai/ha; 169 days after application
Source text: as §5, §1, §2, §4

[10] = system: winter barley; assay: Example 1 field trial, 2-4 leaf stage: crop damage; format: in vivo, Hordeum vulgare; settings: winter barley (Hordeum vulgare), in vivo, 28 days
Procedure: as §1, §2, §4

[11] = system: Oryza sativa (rice); assay: Example 22 field trial, 2-leaf stage: crop damage; format: in vivo
Procedure: as §1, §2, §4

[12] = system: Monochoria vaginalis; assay: Example 22 field trial, 2-leaf stage: herbicidal effect; format: in vivo; settings: 14 days after application
Procedure: as §1, §2, §4

[13] = system: Sorghum verticilliflorum; assay: Example 13 field trial, 2- to 4-leaf stage: herbicidal effect; format: in vivo; settings: 12.5 g of ai/ha; 17 days after application
Procedure: as §1, §2, §4

[14] = system: summer wheat; assay: Example 13 field trial, 2- to 4-leaf stage: crop damage; format: in vivo, Triticum aestivum; settings: in vivo
Procedure: as §1, §2, §4

[15] = system: Lamium amolexicaule; assay: Example 15 field trial, 2- to 4-leaf stage: herbicidal effect; format: in vivo; settings: 28 days after application
Procedure: as §1, §2, §4

[16] = system: winter wheat; assay: Example 15 field trial, 2- to 4-leaf stage: crop damage; format: in vivo, Triticum aestivum; settings: 28 days after application
Procedure: as §1, §2, §4

[17] = system: Euphorbia heterophylla; assay: Example 20 field trial, 3-leaf stage: herbicidal effect; format: in vivo; settings: 31 days after application
Procedure: as §1, §2, §4

[18] = system: Oryza sativa (rice); assay: Example 20 field trial, 3-leaf stage: crop damage; format: in vivo; settings: in vivo
Procedure: as §1, §2, §4

[19] = system: Matricaria chamomilla; assay: Example 14 field trial, 2- to 4-leaf stage: herbicidal effect; format: in vivo; settings: 28 days after application
Procedure: as §1, §2, §4

[20] = system: summer wheat; assay: Example 14 field trial, 2- to 4-leaf stage: crop damage; format: in vivo, Triticum aestivum; settings: 28 days after application
Procedure: The damage and development of all above-ground parts of the plants were recorded.
Crop plants were grown outdoors on plots under natural outdoor conditions, and seeds or rhizome pieces of typical harmful plants were laid out or the natural weed growth was utilized.

[21] = 100 g of ai/ha, 120 to 160 days after application

SMILES: CC(C)(F)c1nc(N)nc(NC(CCCc2ccccc2)C2CC2)n1 (stereo not drawn) [(A2), 4-amino-6-(1-fluoro-1-methylethyl)-2-(4-phenyl-1-cyclopropylbutylamino)-1,3,5-triazine]
- damage, HORVW [1, 21]: 0%
- herbicidal effect, ALOMY ([2]; 100 g of ai/ha): 0%
- herbicidal effect, CAPBP ([3]; 100 g of ai/ha): 90%
- damage, TRZAW [4, 21]: 0%

SMILES: COc1cc(Cl)cc(OCC(C)Nc2nc(N)nc(C(C)(C)F)n2)c1 (stereo not drawn) [(A5), 4-amino-6-(1-fluoro-1-methylethyl)-2-[2-(3-chloro-5-methoxyphenoxy)-1-methylethylamino]-1,3,5-triazine]
- damage, TRZAW ([5]; 25 g of ai/ha): 0%
- damage, TRZAW ([5]; 50 g of ai/ha): 0%
- damage, TRZAW ([5]; 100 g of ai/ha): 0%
- herbicidal effect, VERHE ([6]; 25 g of ai/ha): 14%
- herbicidal effect, VERHE ([6]; 50 g of ai/ha): 22%
- herbicidal effect, VERHE ([6]; 100 g of ai/ha): 34%

SMILES: CC(C)c1ccc(NC(=O)N(C)C)cc1 [(B1.1.1), isoproturon, reference compound]
- herbicidal effect, PAPRH [7]: 15%
- damage, TRZAW [8]: 0%
- damage, HORVW ([1]; winter barley (Hordeum vulgare), in vivo): 0%
- herbicidal effect, ALOMY ([2]; 2000 g of ai/ha): 0%
- herbicidal effect, CAPBP ([3]; 2000 g of ai/ha): 0%
- herbicidal effect, GALAP [9]: 15%
- damage, TRZAW ([4]; winter wheat (Triticum aestivum), in vivo): 0%
- damage, HORVW [10]: 0%

SMILES: CCC(CC)Nc1c([N+](=O)[O-])cc(C)c(C)c1[N+](=O)[O-] [(B1.2.2), pendimethalin]
- herbicidal effect, GALAP [9]: 30%

SMILES: COP(=S)(OC)SCC(=O)N(c1ccc(Cl)cc1)C(C)(C)C [(B1.6.5), anilofos, reference compound]
- damage, ORYSA ([11]; 250 g of ai/ha, 14 days after application): 5%
- herbicidal effect, MOOVA ([12]; 250 g of ai/ha): 95%

SMILES: C#CCN(C)c1c(C#N)cnn1-c1nn2c(c1Cl)CCCC2 [(B1.6.14), reference compound]
- damage, ORYSA ([11]; in vivo): 0%
- herbicidal effect, MOOVA ([12]; 25 g of ai/ha): 82%

SMILES: COC(=O)c1ccccc1S(=O)(=O)NC(=O)N(C)c1nc(C)nc(OC)n1 [(B2.1.1), tribenuron-methyl]
- herbicidal effect, SORVE [13]: 0%
- damage, TRZAS [14]: 0%

SMILES: COc1cc(OC)nc(NC(=O)NS(=O)(=O)N(C)S(C)(=O)=O)n1 [(B2.1.4), amidosulfuron, reference compound]
- herbicidal effect, LAMAM ([15]; 12.5 g of ai/ha): 10%
- herbicidal effect, LAMAM ([15]; 25 g of ai/ha): 25%
- damage, TRZAW ([16]; 12.5 g of ai/ha): 0%
- damage, TRZAW ([16]; 25 g of ai/ha): 0%

SMILES: CCOc1ccccc1OS(=O)(=O)NC(=O)Nc1nc(OC)cc(OC)n1 [(B2.1.9), ethoxysulfuron, reference compound]
- herbicidal effect, EPHHL ([17]; 22.5 g of ai/ha): 45%
- herbicidal effect, EPHHL ([17]; 45 g of ai/ha): 65%
- damage, ORYSA [18]: 0%

SMILES: Cc1cc(Cl)ccc1O[C@@H](C)C(=O)O [(B2.2.4), mecoprop-P]
- herbicidal effect, MATCH ([19]; 750 g of ai/ha): 54%
- herbicidal effect, MATCH ([19]; 1500 g of ai/ha): 63%
- damage, TRZAS ([20]; 750 g of ai/ha): 0%
- damage, TRZAS ([20]; 1500 g of ai/ha): 0%
